# Reference: patent US20130296430A1, “COMPOSITIONS AND METHODS FOR TREATING AUTISM AND AUTISM SPECTRUM DISORDER” (priority 2012, published 2013)
# Legend:
# Assay type in all cases: in vivo, human
# children with autism [1] = assay: 12-week placebo-controlled study of NAC: Clinical Global Impression (CGI)
# Description: The Clinical Global Impression (CGI) rating scales are commonly used measures of symptom severity, treatment response and the efficacy of treatments in treatment studies of patients with mental disorders (Guy, W., 1976, ECDEU Assessment Manual for Psychopharmacology, Rockville, Md., U.S. Department of Health, Education, and Welfare). The Clinical Global Impression-Severity scale (CGI-S) is a 7-point scale that requires the clinician to rate the severity of the patient's illness at the time of assessment, relative to the clinician's past experience with patients who have the same diagnosis. Considering total clinical experience, a patient is assessed on severity of mental illness at the time of rating 1=normal, not at all ill; 2=borderline mentally ill; 3=mildly ill; 4=moderately ill; 5=markedly ill; 6=severely ill; or 7=extremely ill.
# (§1) A 12-week, double-blind randomized, placebo-controlled study of NAC in children with autism was conducted in the Autism & Developmental Disabilities Clinic in the Division of Child & Adolescent Psychiatry at Stanford University Medical Center. The recruitment period started in March 2009 and ended in September 2010. Subjects with and without mental retardation were included. After obtaining informed consent, subjects were screened and inclusion and exclusion criteria were assessed. No changes in eligibility criteria were applied throughout the study. This investigation was approved by the institutional review board at Stanford University School of Medicine. An investigational new drug application (IND#100905) was filed with the Food and Drug Administration, and the study was registered in National Institutes of Health at ClinicalTrials.gov (identifier number NCT00627705).
# (§2) After the screening phase, baseline measures were obtained from subjects continuing to meet inclusion and exclusion criteria. Subjects were then randomized to either placebo or active based on age and gender. As NAC is a nutritional supplement, the quality control is predictably variable and therefore purity is not as stringent as prescription medications. Therefore, in the present study, the stability of the compound was ascertained and the integrity of the active agent was protected by packaging each NAC doses in individual pockets. The active compound and matching placebo were provided by BioAdvantex Pharma, Inc. (Mississauga, Ontario, Canada). […] Subjects randomized to the active drug were initiated at the dose of 900 mg every day for the first 4 weeks, then 900 mg twice daily for 4 weeks and 900 mg three times daily for 4 weeks. (This dose selection was based on previously published studies for other psychiatric conditions (Grant, J. et al., Arch Gen Psychiatry, 66:468-475 (2009); Berk, M. et al., Biol Psychiatry, 64:361-368 (2008); Berk, M. et al., Bio Psychiatry, 64:468-475 (2008)) and the previous experience of our group in studies of children with cystic fibrosis). Alternatively, subjects were initiated at the dose of 900 mg per day, 1,800 mg per day, or 2,700 mg per day of NAC. Alternatively, the subjects were initiated at the dose ranging from 900 mg per day to 2,700 mg per day of NAC.
# If a subject could not tolerate a specific dose, s/he would be maintained at the highest tolerated dose. Subjects were evaluated at baseline, week 4, week 8 and week 12. The Aberrant Behavioral Checklist (ABC) (Aman, M. et al., Am J Ment Defic. 89:492-502 (1985)), the Clinical Global Impressions (CGI) (Guy, W., ECDEU Assessment Manual for Psychopharmacology, Rockville, Md., U.S. Department of Health, Education, and Welfare (1976)), and the Dosage Record and Treatment Emergent Symptom Scale (DOTES) (Guy, W., 1976, ECDEU Assessment Manual for Psychopharmacology, Rockville, Md., U.S. Department of Health, Education, and Welfare) were obtained in each visit. […]
# children with autism [2] = assay: 12-week placebo-controlled study of NAC: Social Responsiveness Scale (SRS)
# Description: The Social Responsiveness Scale (SRS) (Constantino, J. et al., J Dev Behav Pediatr, 21:2-11 (2000); Constantino, J. et al., J Autism Dev Disord., 3:427-433 (2003)) is a norm-referenced, 65-item parent report questionnaire developed to measure social behaviors, including social awareness, social information processing, reciprocal social communication, and social anxiety, in both clinical and non-clinical populations. It is designed for use with children ages 4 through 18, and more recently, a special version of the SRS has been developed for preschoolers (Pine, E. et al., Autism, 10:344-352 (2006)). The SRS items measure the Autistic Spectrum Disorder (ASD) symptoms in the domains of social awareness, social information processing, reciprocal social communication, social anxiety/avoidance, and stereotypic behavior/restricted interests. Each item is scored from 1 (not true) to 4 (almost always true). Scores are obtained for five treatment subscales: Social Awareness (e.g., “Is aware of what others are thinking or feeling”), Social Cognition (e.g., “Doesn't recognize when others are trying to take advantage of him or her”), Social Communication (e.g., “Avoids eye contact or has unusual eye contact”), Social Motivation (e.g., “Would rather be alone than with others”), and Autistic Mannerisms (e.g., “Has an unusually narrow range of interests”). The SRS summary score was continuously distributed within each group and minimally correlated with Intelligent Quotient (IQ). High scores indicate more severe behavioral symptoms.
# as §1, §2
# If a subject could not tolerate a specific dose, s/he would be maintained at the highest tolerated dose. […]
# children with autism [3] = assay: 12-week placebo-controlled study of NAC: Repetitive Behavior Scale-Revised (RBS-R)
# Description: The Repetitive Behavior Scale-Revised (RBS-R) (Bodfish et al., The Repetitive Behavior Scale: A test manual (1998)) is an empirically derived clinical rating scale for measuring the presence and severity of a variety of forms of restricted, repetitive behavior that are characteristic of individuals with autism. The RBS-R consists of 6 subscales: stereotyped behavior, self-injurious behavior, compulsive behavior, routine behavior, sameness behavior, and restricted behavior. The scale provides an overall raw score for severity of repetitive behaviors and separate measures of severity for each subtype of repetitive behavior. High scores indicate more severe behavioral symptoms.
# as §1
# After the screening phase, baseline measures were obtained from subjects continuing to meet inclusion and exclusion criteria. Subjects were then randomized to either placebo or active based on age and gender. As NAC is a nutritional supplement, the quality control is predictably variable and therefore purity is not as stringent as prescription medications. Therefore, in the present study, the stability of the compound was ascertained and the integrity of the active agent was protected by packaging each NAC doses in individual pockets. The active compound and matching placebo were provided by BioAdvantex Pharma, Inc. (Mississauga, Ontario, Canada). […] Subjects randomized to the active drug were initiated at the dose of 900 mg every day for the first 4 weeks, then 900 mg twice daily for 4 weeks and 900 mg three times daily for 4 weeks. […]
# If a subject could not tolerate a specific dose, s/he would be maintained at the highest tolerated dose. Subjects were evaluated at baseline, week 4, week 8 and week 12. […]
# [4] = Baseline (before treatment), NAC group n = 15
# [5] = standardized mean difference NAC vs placebo at Week 12
compound,measurement,setting,value
"CC(=O)N[C@@H](CS)C(=O)O [NAC, N-acetylcysteine]","CGI severity, Mean (SD)",children with autism [1]; [4],5.1 (0.7)
same,"CGI improvement, Mean (SD)","children with autism [1]; Week 12, NAC n = 14",2.9 (1.1)
same,"CGI severity, Mean (SD)","children with autism [1]; Week 12, NAC n = 14, 7-point scale",4.5 (0.8)
same,"CGI-S global severity, pattern NAC vs placebo","children with autism [1]; all randomized participants, p=0.170",no significant differences
same,"CGI-I improvement, pattern NAC vs placebo","children with autism [1]; all randomized participants, p=0.449",no significant differences
same,"CGI improvement, Cohen's d",children with autism [1]; [5],.30
same,"CGI severity, Cohen's d",children with autism [1]; [5],.47
same,"SRS total, Mean (SD)",children with autism [2]; [4],111.9 (28.3)
same,"SRS total, Mean (SD)","children with autism [2]; Week 12, NAC n = 14",93.8 (26.7)
same,"SRS-Total raw scores, treatment effect","children with autism [2]; all randomized participants, NAC vs placebo, p=0.141",did not significantly influence
same,"SRS-Social Cognition sub-scale, treatment effect","children with autism [2]; all randomized participants, p=0.037, said to appear due to regression to the mean",significant improvements
same,"SRS-Autism Mannerisms sub-scale, treatment effect","children with autism [2]; all randomized participants, p=0.045",significant improvements
same,"any other SRS subscale, treatment effect","children with autism [2]; all randomized participants, p>0.100",no significant treatment effects
same,"SRS-Total scores, treatment effect","children with autism [2]; participants who completed the study (NAC N=13, placebo N=12), p=0.039",significantly improved
same,"SRS total, Cohen's d",children with autism [2]; [5],.14
same,"RBS total, Mean (SD)",children with autism [3]; [4],33.1 (16.2)
same,"RBS total, Mean (SD)","children with autism [3]; Week 12, NAC n = 14",22.3 (12.0)
same,"RBS-Total, treatment effect","children with autism [3]; all randomized participants, NAC vs placebo, p=0.015",significant improvement
same,"RBS total, Cohen's d",children with autism [3]; [5],.57
